Assay results from article PMC10006169, “A phase I trial of LXS196, a protein kinase C (PKC) inhibitor, for metastatic uveal melanoma” (British Journal of Cancer, 2023).
Like-named read-outs stand apart in the source and are kept apart here.

Test: Plasma pharmacokinetics (LC-MS/MS)
Format: in vivo, human
Conditions: for AUC(0-inf) / half-life / AUC(0-t) / Cmax: human, plasma, oral, 100 mg, C1D1, 100 mg QD
Experimental: In the dose escalation part of the study, PK samples were collected at various pre- and post-dose time points on C1D1, D2, D3, D15 and D16. Drug concentrations were assessed using a validated liquid chromatography-tandem mass spectrometry assay.

CC1(N)CCN(c2cccnc2NC(=O)c2nc(-c3ncccc3C(F)(F)F)cnc2N)CC1 [LXS196]
Increase in exposure (AUC0–t and Cmax) with dose (C1D1 and D15, QD and BID): under-proportional
Racc (accumulation ratio), Geo-mean (C1D15, 100 mg QD, n=2): 1.2
Racc (accumulation ratio), Mean (SD) (C1D15, 100 mg QD, n=2): 1.27 (0.570)
Racc (accumulation ratio), Median (Min, max) (C1D15, 100 mg QD, n=2): 1.27 (0.867, 1.67)
Cmin, Geo-mean (C1D15, 100 mg QD, n=3): 137 ng/mL
Cmin, Mean (SD) (C1D15, 100 mg QD, n=3): 144 (58.0) ng/mL
Cmin, Geo-mean (C1D15, 200 mg BID, n=5): 705 ng/mL
Cmin, Mean (SD) (C1D15, 200 mg BID, n=5): 787 (376) ng/mL
Racc (accumulation ratio), Geo-mean (C1D15, 200 mg BID, n=5): 0.989
Racc (accumulation ratio), Mean (SD) (C1D15, 200 mg BID, n=5): 1.11 (0.611)
Racc (accumulation ratio), Median (Min, max) (C1D15, 200 mg BID, n=5): 0.852 (0.539, 2.00)
Racc (accumulation ratio), Geo-mean (C1D15, 200 mg QD, n=2): 0.743
Racc (accumulation ratio), Mean (SD) (C1D15, 200 mg QD, n=2): 0.750 (0.145)
Racc (accumulation ratio), Median (Min, max) (C1D15, 200 mg QD, n=2): 0.75 (0.647, 0.852)
Cmin, Geo-mean (C1D15, 200 mg QD, n=3): 134 ng/mL
Cmin, Mean (SD) (C1D15, 200 mg QD, n=3): 143 (59.2) ng/mL
Racc (accumulation ratio), Geo-mean (C1D15, 300 mg BID, n=12): 1.09
Racc (accumulation ratio), Mean (SD) (C1D15, 300 mg BID, n=12): 1.15 (0.403)
Racc (accumulation ratio), Median (Min, max) (C1D15, 300 mg BID, n=12): 1.07 (0.549, 1.98)
Cmin, Geo-mean (C1D15, 300 mg BID, n=17): 912 ng/mL
Cmin, Mean (SD) (C1D15, 300 mg BID, n=17): 1040 (462) ng/mL
Cmin, Median (Min, max) (C1D15, 300 mg BID, n=17): 1070 (155, 2100) ng/mL
Racc (accumulation ratio), Geo-mean (C1D15, 300 mg QD, n=13): 0.895
Racc (accumulation ratio), Mean (SD) (C1D15, 300 mg QD, n=13): 0.934 (0.307)
Racc (accumulation ratio), Median (Min, max) (C1D15, 300 mg QD, n=13): 0.838 (0.577, 1.72)
Cmin, Geo-mean (C1D15, 300 mg QD, n=14): 344 ng/mL
Cmin, Mean (SD) (C1D15, 300 mg QD, n=14): 426 (319) ng/mL
Racc (accumulation ratio), Geo-mean (C1D15, 400 mg BID, n=3): 0.721
Racc (accumulation ratio), Mean (SD) (C1D15, 400 mg BID, n=3): 0.738 (0.204)
Racc (accumulation ratio), Median (Min, max) (C1D15, 400 mg BID, n=3): 0.643 (0.599, 0.972)
Cmin, Geo-mean (C1D15, 400 mg BID, n=4): 627 ng/mL
Cmin, Mean (SD) (C1D15, 400 mg BID, n=4): 647 (194) ng/mL
Cmin, Median (Min, max) (C1D15, 400 mg BID, n=4): 608 (464, 909) ng/mL
Racc (accumulation ratio), Geo-mean (C1D15, 500 mg QD, n=8): 0.767
Racc (accumulation ratio), Mean (SD) (C1D15, 500 mg QD, n=8): 0.793 (0.214)
Racc (accumulation ratio), Median (Min, max) (C1D15, 500 mg QD, n=8): 0.768 (0.484, 1.11)
Cmin, Geo-mean (C1D15, 500 mg QD, n=9): 622 ng/mL
Cmin, Mean (SD) (C1D15, 500 mg QD, n=9): 660 (234) ng/mL
Cmin, Geo-mean (C1D15, 1000 mg QD, n=2): 673 ng/mL
Cmin, Mean (SD) (C1D15, 1000 mg QD, n=2): 674 (10.6) ng/mL
Racc (accumulation ratio), Geo-mean (C1D15, 1000 mg QD, n=2): 0.709
Racc (accumulation ratio), Mean (SD) (C1D15, 1000 mg QD, n=2): 0.718 (0.161)
Racc (accumulation ratio), Median (Min, max) (C1D15, 1000 mg QD, n=2): 0.718 (0.604, 0.832)
PK variability (CV% for Cmax and AUC0–t) (between-patient): moderate
AUC(0-inf) (n=2, read-out: AUCinf, Geo-mean): 8560 ng·h/mL
AUC(0-inf) (n=2, read-out: AUCinf, Mean (SD)): 8640 ng·h/mL
AUC(0-inf) (n=2, read-out: AUCinf, Median (Min, max)): 8640 ng·h/mL
half-life (n=2, read-out: T1/2, Geo-mean (converted)): 8.43 h
half-life (n=2, read-out: T1/2, Mean (SD) (converted)): 8.49 h
half-life (n=2, read-out: T1/2, Median (Min, max) (converted)): 8.49 h
AUC(0-t) (n=3, read-out: AUC0-t, Geo-mean): 8440 ng·h/mL
AUC(0-t) (n=3, read-out: AUC0-t, Mean (SD)): 8670 ng·h/mL
AUC(0-t) (n=3, read-out: AUC0-t, Median (Min, max)): 8020 ng·h/mL
Cmax (n=3, read-out: Cmax, Geo-mean): 774 ng/mL
Cmax (n=3, read-out: Cmax, Mean (SD)): 776 ng/mL
Cmax (n=3, read-out: Cmax, Median (Min, max)): 811 ng/mL
